The pIC50 is the negative decadic logarithm of the IC50, by convention in mol/L. Broadly, the pEC50 is the negative decadic logarithm of the EC50, by convention in mol/L.

pEC50, pIC50: −log10 of the molar value.

Experimental findings from BindingDB's records for doi:10.1016/j.bmcl.2010.09.011 (The University of Tokyo, 2010) are described below.

Test [1] in a line: Antiandrogen activity against androgen receptor in androgen-dependent mouse SC3 cells assessed as inhibition of testosterone-induced cell proliferation by WST1 assay.
A short description of test [2]: Vitamin-D activity at VDR receptor in human HL60 cells assessed as induction of cell differentiation by NBT reduction assay.

`CCC(CC)(c1ccc(OC[C@H](O)CO)c(C)c1)c1ccc(OC[C@@H](O)C(C)(C)C)c(C)c1` [(R)-3-(4-(3-(4-((S)-2-hydroxy-3,3-dimethylbutoxy)-3-methylphenyl)pentan-3-yl)-2-methylphenoxy)propane-1,2-diol]: the pIC50 in test [1] is 7.17.

Consider `CCC(CC)(c1ccc(OCC(=O)C(C)(C)CCCc2ccccc2)c(C)c1)c1ccc(OC[C@@H](O)CO)c(C)c1` [(S)-1-(4-(3-(4-(2,3-dihydroxypropoxy)-3-methylphenyl)pentan-3-yl)-2-methylphenoxy)-3,3-dimethyl-6-phenylhexan-2-one], for which, in test [1], the pIC50 is 5.01. In addition, the pEC50 in test [2] was less than 4.52.

Turning to `CCC(CC)(c1ccc(OCC(=O)C(C)(C)Cc2ccc3ccccc3c2)c(C)c1)c1ccc(OC[C@@H](O)CO)c(C)c1` [(S)-1-(4-(3-(4-(2,3-dihydroxypropoxy)-3-methylphenyl)pentan-3-yl)-2-methylphenoxy)-3,3-dimethyl-4-(naphthalen-2-yl)butan-2-one], in test [1], the negative logarithm of the IC50 (pIC50) was less than 4.52. Further, the pEC50 in test [2] was less than 4.52.

For `CCC(CC)(c1ccc(OCC(=O)C(C)(C)C)c(C)c1)c1ccc(OCC(O)CO)c(C)c1` (stereo not given) [LG190178], in test [2], the pEC50 is 7.05.

Turning to `CCC(CC)(c1ccc(OCC(O)C(C)(C)CCCc2ccccc2)c(C)c1)c1ccc(OC[C@@H](O)CO)c(C)c1` (stereo partly drawn) [(2S)-3-(4-(3-(4-(2-hydroxy-3,3-dimethyl-6-phenylhexyloxy)-3-methylphenyl)pentan-3-yl)-2-methylphenoxy)propane-1,2-diol], the pIC50 in test [1] is 6.89. The pEC50 in test [2] was 5.44.

In the case of `CCC(CC)(c1ccc(OCC(O)C(C)(C)Cc2ccccc2)c(C)c1)c1ccc(OC[C@@H](O)CO)c(C)c1` (stereo partly drawn) [(2S)-3-(4-(3-(4-(2-hydroxy-3,3-dimethyl-4-phenylbutoxy)-3-methylphenyl)pentan-3-yl)-2-methylphenoxy)propane-1,2-diol], the pIC50 in test [1] is 5.77. Further, the pEC50 in test [2] is 4.96.

Regarding `CCC(CC)(c1ccc(OC[C@@H](O)CO)c(C)c1)c1ccc(OC[C@@H](O)C(C)(C)C)c(C)c1` [(S)-3-(4-(3-(4-((S)-2-hydroxy-3,3-dimethylbutoxy)-3-methylphenyl)pentan-3-yl)-2-methylphenoxy)propane-1,2-diol], the pIC50 in test [1] is 7.89.

In the case of `CCC(CC)(c1ccc(OC[C@@H](O)CO)c(C)c1)c1ccc(O[C@@H]2CN(C(=O)OCc3ccccc3)C[C@@H]2O)c(C)c1` [benzyl 3-(4-(3-(4-((S)-2,3-dihydroxypropoxy)-3-methylphenyl)pentan-3-yl)-2-methylphenoxy)-4-hydroxypyrrolidine-1-carboxylate], the pIC50 in test [1] was less than 4.52. Further, the pEC50 in test [2] was less than 4.52.

`CCC(CC)(c1ccc(OCC(=O)C(C)(C)C)c(C)c1)c1ccc(OC[C@@H](O)CO)c(C)c1` [(S)-1-(4-(3-(4-(2,3-dihydroxypropoxy)-3-methylphenyl)pentan-3-yl)-2-methylphenoxy)-3,3-dimethylbutan-2-one]: in test [1], the pIC50 was 7.49.

Consider `CCC(CC)(c1ccc(OCC(=O)C(C)(C)CCc2ccccc2)c(C)c1)c1ccc(OC[C@@H](O)CO)c(C)c1` [(S)-1-(4-(3-(4-(2,3-dihydroxypropoxy)-3-methylphenyl)pentan-3-yl)-2-methylphenoxy)-3,3-dimethyl-5-phenylpentan-2-one], for which the negative-log IC50 (pIC50) in test [1] was 5.96. In test [2], the pEC50 is 4.64.

With `CCC(CC)(c1ccc(OC[C@H](O)CO)c(C)c1)c1ccc(OC[C@H](O)C(C)(C)C)c(C)c1` [(R)-3-(4-(3-(4-((R)-2-hydroxy-3,3-dimethylbutoxy)-3-methylphenyl)pentan-3-yl)-2-methylphenoxy)propane-1,2-diol], the pIC50 in test [1] is 7.85.

On to `CCC(CC)(c1ccc(OC[C@@H](O)CO)c(C)c1)c1ccc(O[C@@H]2CN(Cc3ccccc3)C[C@@H]2O)c(C)c1` [(2S)-3-(4-(3-(4-(1-benzyl-4-hydroxypyrrolidin-3-yloxy)-3-methylphenyl)pentan-3-yl)-2-methylphenoxy)propane-1,2-diol], for which, in test [1], the pIC50 was less than 5.00. Further, the pEC50 in test [2] is less than 4.52.

`CCC(CC)(c1ccc(OCC(O)C(C)(C)CCCCc2ccccc2)c(C)c1)c1ccc(OC[C@@H](O)CO)c(C)c1` (stereo partly drawn) [(2S)-3-(4-(3-(4-(2-hydroxy-3,3-dimethyl-7-phenylheptyloxy)-3-methylphenyl)pentan-3-yl)-2-methylphenoxy)propane-1,2-diol]: the pIC50 in test [1] was less than 5.00. In test [2], the negative-log EC50 (pEC50) is less than 4.52.

As to `CCC(CC)(c1ccc(OCC(O)C(C)(C)CCc2ccccc2)c(C)c1)c1ccc(OC[C@@H](O)CO)c(C)c1` (stereo partly drawn) [(2S)-3-(4-(3-(4-(2-hydroxy-3,3-dimethyl-5-phenylpentyloxy)-3-methylphenyl)pentan-3-yl)-2-methylphenoxy)propane-1,2-diol], the pIC50 in test [1] is 6.06. Moreover, the pEC50 in test [2] was 5.15.

As to `CCC(CC)(c1ccc(OC[C@@H](O)CO)c(C)c1)c1ccc(OC[C@H](O)C(C)(C)C)c(C)c1` [(2S)-3-{4-[1-ethyl-1-(4-{[(2R)-2-hydroxy-3,3-dimethylbutyl]oxy}-3-methylphenyl)propyl]-2-methylphenoxy}propane-1,2-diol], the pIC50 in test [1] is 8.52.

For `CCC(CC)(c1ccc(OCC(=O)C(C)(C)CCCCc2ccccc2)c(C)c1)c1ccc(OC[C@@H](O)CO)c(C)c1` [(S)-1-(4-(3-(4-(2,3-dihydroxypropoxy)-3-methylphenyl)pentan-3-yl)-2-methylphenoxy)-3,3-dimethyl-7-phenylheptan-2-one], the pIC50 in test [1] is less than 4.52. Besides, in test [2], the negative logarithm of the EC50 (pEC50) is less than 4.52.

For `CCC(CC)(c1ccc(OCC(=O)C23CC4CC(CC(C4)C2)C3)c(C)c1)c1ccc(OC[C@@H](O)CO)c(C)c1`, the pIC50 in test [1] was less than 4.52. In addition, the pEC50 in test [2] is less than 4.52.

Turning to `CCC(CC)(c1ccc(OCC(=O)C(C)(C)C)c(C)c1)c1ccc(OC[C@H](O)CO)c(C)c1` [(R)-1-(4-(3-(4-(2,3-dihydroxypropoxy)-3-methylphenyl)pentan-3-yl)-2-methylphenoxy)-3,3-dimethylbutan-2-one], in test [1], the pIC50 was 7.82.

For the compound `CCC(CC)(c1ccc(OCC(O)C(C)(C)Cc2ccc3ccccc3c2)c(C)c1)c1ccc(OC[C@@H](O)CO)c(C)c1` (stereo partly drawn) [(2S)-3-(4-(3-(4-(2-hydroxy-3,3-dimethyl-4-(naphthalen-2-yl)butoxy)-3-methylphenyl)pentan-3-yl)-2-methylphenoxy)propane-1,2-diol], the pIC50 in test [1] was less than 5.00. Moreover, in test [2], the pEC50 is less than 4.52.

As for `CCC(CC)(c1ccc(OCC(O)C23CC4CC(CC(C4)C2)C3)c(C)c1)c1ccc(OC[C@@H](O)CO)c(C)c1` (stereo not given in full), the pIC50 in test [1] is less than 5.00. Moreover, the pEC50 in test [2] is 4.66.

`CCC(CC)(c1ccc(OCC(=O)C(C)(C)Cc2ccccc2)c(C)c1)c1ccc(OC[C@@H](O)CO)c(C)c1` [(S)-1-(4-(3-(4-(2,3-dihydroxypropoxy)-3-methylphenyl)pentan-3-yl)-2-methylphenoxy)-3,3-dimethyl-4-phenylbutan-2-one]: in test [1], the pIC50 was less than 5.00. Also, the pEC50 in test [2] was 4.68.
